Measured values taken from a melting point compilation (Tetko et al.; mined from patent text by program, amines drawn as free bases though some values may be those of a salt).

Compound	melting point [°C]
CCCCC/C(=C\C=C\C(=S)NCCCCc1cccnc1)c1ccc(OC)cc1	121 to 122
CC(C)=CCOc1c(I)cc(C(C)O)nc1Cl (centres undefined)	80 to 81
CC(=O)OC1CSC(Oc2cnccc2-c2cccnc2)C(OC(C)=O)C1OC(C)=O (centres undefined)	159
CC(=O)OC1CSC(Oc2ccc(C(C)=O)nc2)C(OC(C)=O)C1OC(C)=O (centres undefined)	149
CC(C)C(OCc1ccccc1)[C@H]1[C@H]([N+](=O)[O-])[C@@H](c2ccco2)N[C@@H]1C(=O)NCCC(=O)O (some centres undefined)	70 to 72
Nc1c(Cl)cc(C(=O)NC2CCNCC2)c2c1CCO2	190
Cc1cc(Br)cnc1C#N	86 to 88
CN1CCOc2ccc(S(=O)(=O)n3c(Cc4ccc(C(=O)O)cc4)cc4cc(C(F)(F)F)ccc43)cc21	206
C=CCn1c(=O)n(-c2ccc3c(c2)OCO3)c2ncccc21	100
C=C(C)C(=O)c1cn2c(C)c(CC)c(SC)nc2n1	136 to 137
C=CCN(C1=NCCN1C)c1c(Cl)cccc1Cl	59 to 61
Cn1c(CNCC2CCOCC2)cc2cc(NC(=O)c3ccc(OCC4CCOC4)cc3)ccc21 (centres undefined)	153 to 154
CCCNC(=O)Nc1ccc(N(C)C)cc1C(=O)NCC1CCN(C(c2ccccc2)c2ccccc2)CC1	199 to 201
Cc1cccc(CO)c1Cl	63 to 64
CC(Cc1c[nH]c2ccccc12)(NC(=O)OC1C2CC3CC(C2)CC1C3)C(=O)NC1CCCCC1C(=O)O (centres undefined)	230 to 234
CNC(=O)CNC(=O)c1ccc(C)c(-n2c(C)cc(OCc3ccccc3CNC(=O)Nc3cc(C(C)(C)C)nn3-c3ccc(Cl)c(O)c3)c(Cl)c2=O)c1	179 to 181
CN1CCN(C(=O)c2ccc([N+](=O)[O-])cc2[N+](=O)[O-])CC1	130 to 132
CC(=O)N=C(OC(C)=O)N1CCSC1c1ccccc1OCCN1CCN(c2ccccc2)CC1 (centres undefined)	120 to 124
CCCc1csc(NS(=O)(=O)c2cccc(Cl)c2C)n1	169
O=C(CCCN1CCN2c3ccccc3NC(=O)C2C1)c1ccc(F)cc1 (centres undefined)	145 to 150
O=C(CCCCC1(C(=O)O)CCC1)CCCCC1(C(=O)O)CCC1	69 to 70
O=P(O)(O)CCCCCCCCCCCCCCCCCCCCCCC(F)(F)C(F)(F)C(F)(F)C(F)(F)F	106 to 108

Compound	melting point [°C]
Cc1cc(C)cc(NC(=O)[C@@H](C)N)c1	134 to 136
CC(=O)SC1CN(C(=O)OCc2ccccc2)C1	94.5 to 95.5
N#Cc1c(-c2ccc(Cl)cc2)[nH]c(SC(F)(F)F)c1Br	241 to 243
O=C(Nc1ncco1)C1c2ccccc2Sc2ccccc21	188 to 191
CC(C)(C)n1c(=O)c(=O)[nH]c2ccccc21	> 300
C[C@H](N)C(=O)Nn1cccc1	63 to 66
COc1cc(C(=O)c2ncc3ccc(NC(=O)OC(C)(C)C)cn23)ccc1[N+](=O)[O-]	200
C=C(c1ccc(N2CCCC2)cc1)c1ccc(N2CCCC2)cc1	211
CC(C)Oc1ccc(/C=C(\NC(=O)c2ccc(OCCC3C=CCC3)cc2)C(=O)NCCO)cc1 (centres undefined)	67 to 70
CNc1cc2c(cc1[N+](=O)[O-])OCO2	170
N#CC1=C(Nc2cccc(F)c2)CCC1	98 to 100
O=C(O)c1c(Cl)c(Cl)c(Cl)c(Cl)c1C(=O)Nc1ccc(S(=O)(=O)C(F)(F)F)cc1	92 to 97
CCCc1nc(Cl)c(C(=O)O)n1Cc1ccc(C2(C(=O)O)CC=CC2)s1	170 to 172
CCCCn1c(=S)sc2c(=N)n(NC(=O)c3ccco3)cnc21	210
CC(C)(C)OC(=O)N1CCCN(c2cc[nH]c(=S)c2C#N)CC1	203 to 205
COC1CCN(S(=O)(=O)c2ccc(S(=O)(=O)Cl)cc2C(F)(F)F)CC1	117 to 119
Cc1cc(-n2c(Cl)cnc2C)cc2ccc(=O)[nH]c12	258 to 261
Fc1ccccc1C1=NCc2n[nH]cc2-c2ccc(Cl)cc21	208 to 210
O=C(Nc1cccc(C(F)(F)F)c1)c1ccc([N+](=O)[O-])cc1	210
CN(C)C(=N[N+](=O)[O-])N(Cc1cnc(Cl)s1)C(=S)Oc1ccccc1	161 to 162
O=C1COc2ccccc2O1	45 to 53

Now from value to compound:

melting point [°C]	Compound
238	CCNS(=O)(=O)c1ccc(N2N=C(C)C(=CNc3ccccc3OCC)C2=O)cc1
181 to 182	CC(C)c1ccc2c(c1)c(S(=O)(=O)c1ccccc1C(C)C)c(CC(C)(C)C(=O)O)n2Cc1ccc(Cl)cc1
259 to 261	N#Cc1c(-c2cccc(N)c2)cc(-c2ccccc2O)nc1NC(=O)c1ccccc1
242 to 244	O=C(NC(Cc1ccc(OCc2ccccc2)cc1)C(=O)O)c1nc2ccc(-c3ccc(Cl)cc3)cn2c1Cl (centres undefined)
178 to 180	CCc1cc(C(=O)c2ccccc2Cl)c(-n2c(C)nnc2CNC(=O)Nc2cccc(C(=O)O)c2)s1
131 to 137	CCn1c2ccccc2c2cc(Nc3nccc(-c4ccc(N5CCNCC5)nc4)n3)ccc21
160 to 162	CCCCc1oc2ccccc2c1C(=O)c1ccc2c(Br)c(OCc3nnn[nH]3)ccc2c1
192 to 221	CC1Oc2ccc(CN3CCN(c4nc(-c5ccccc5)ns4)CC3)cc2NC1=O (centres undefined)
63 to 65	CCOC(=O)C1(C(=O)NCc2ccccc2)CC(=O)N(Cc2ccccc2)C1 (centres undefined)
157 to 158	Cc1nnc(-c2ccc3occ(-c4ccc(CO)cc4)c3c2)o1
147 to 148	COC(=O)CS(=O)(=O)Nc1nc(-c2ncccc2C)cc2cccnc12
75 to 77	Cc1cc(Oc2cccc(C(F)(F)F)c2)nc(C(=O)O)c1
80 to 84	CC(C)(C)OC(=O)NCc1cccc(Cn2ccc(OCc3ccc(F)cc3F)c(Br)c2=O)c1
54.1 to 56	CCOP(=O)(OCC)c1c(-c2c(OC)ccc3ccccc23)c(C)c2c(c1-c1ccccc1)COC2
139 to 140	COC(=O)c1cc(-n2cnn(Cc3ccc(F)cc3)c2=O)nn1Cc1ccc(OC)cc1
94	O=C(c1ccccc1OCCCCl)c1cccc2[nH]ccc12
110 to 111	CCOC(=O)Cn1cc(Cc2nc3c(F)c(F)cc(F)c3s2)c2ccccc21
211	Nc1cccc(C(=O)c2cccc3ccccc23)c1O
127	CC(C)(C)S(=O)(=O)NCc1cc(-c2ccc(Cl)c(Cl)c2)n(Cc2ccc(Cl)c(Cl)c2)n1
256 to 258	O=c1nc(NCCCn2ccnc2)n2c3c1cnn3C(c1cccc(F)c1)=CC2
225 to 228	Cc1nc(N2CCN(Cc3cccc4cccnc34)C2=O)sc1C(=O)NCc1cccnc1
189 to 191	CCn1nc(-c2ccccc2)c(C(C)=O)c(Nc2cccc(Cl)c2)c1=O
190 to 192	Cc1c(-c2ccncc2)nc2n(c1=O)CCCN2CC(=O)c1ccccc1
154 to 155	O=[N+]([O-])C=Cc1cn(-c2ccccc2)c2ccccc12
103 to 105	CC(=O)c1cc(-c2ccncc2)sc1Oc1ccccc1
193 to 195	COc1cccc(Nc2nc(-n3nc(C)cc3C)nc3ccccc23)c1
